What is called IC50 is the point on the concentration scale where inhibition reaches its midpoint. As usually defined, the inhibition is the share of the control response that was lost under treatment. A higher inhibition goes with a response far below the control. One may read the half-life as the time in which the quantity being followed falls by half. Read a high half-life as slow loss.

The source of these data is patent EP0655065B1, “27-HYDROXYRAPAMYCIN AND DERIVATIVES THEREOF” (AMERICAN HOME PRODUCTS CORPORATION, priority 1992, dated 1994).

Where “and” joins values, the source holds several entries; their conditions need not be identical. Identical values can stand only once. Like-named read-outs stand apart in the source and are kept apart here.

The subject of data set [1] is cells from the thymus of normal BALB/c mice. The experiment in a line: comitogen-induced thymocyte proliferation procedure (LAF). The following applies: for IC50: read-out: L A F (IC50). It is filed as cell-based. As to the method: The comitogen-induced thymocyte proliferation procedure (LAF) was used as an in vitro measure of the immunosuppressive effects of representative compounds. Briefly, cells from the thymus of normal BALB/c mice are cultured for 72 hours with PHA and IL-1 and pulsed with tritiated thymidine during the last six hours. Cells are cultured with and without various concentrations of rapamycin, cyclosporin A, or test compound. Cells are harvested and incorporated radioactivity is determined. Inhibition of lymphoproliferation is assessed as percent change in counts per minute from non-drug treated controls. The results are expressed as an IC50.

Data set [2] concerns pinch skin graft from male DBA/2 donors transplanted to male BALB/c recipients. The experiment in a line: pinch skin graft survival time. The following applies: mean graft survival time, intraperitoneally. It is filed as in vivo. The procedure:
A representative compound of this invention was also evaluated in an in vivo test procedure designed to determine the survival time of pinch skin graft from male DBA/2 donors transplanted to male BALB/c recipients. […] Briefly, a pinch skin graft from the donor is grafted on the dorsum of the recipient as a homograft, and an autograft is used as control in the same region. The recipients are treated with either varying concentrations of cyclosporin A as test control or the test compound, intraperitoneally. Untreated recipients serve as rejection control. The graft is monitored daily and observations are recorded until the graft becomes dry and forms a blackened scab. This is considered as the rejection day. The mean graft survival time (number of days ± S.D.) of the drug treatment group is compared with the control group.

Data set [3] is described as follows: half life (stability) in 0.1 M phosphate buffer. It is filed as physicochemical. The following applies: for half-life: 0.1 m phosphate buffer, pH 7.4. From the text:
The 27-hydroxyrapamycin derivatives of formulas II - X are also expected to resist ring degredative reactions better than rapamycin and 31- and/or 42- substituted rapamycin derivatives of rapamycin.

In the case of 27-Hydroxyrapamycin, the IC50 in data set [1] (thymocytes cultured 72 hours with PHA and IL-1, tritiated thymidine incorporation) stood at 3.7 nM. Further, the “Skin Graft (days + SD)” value in data set [2] (dose of 4 mg/kg, 4 mg/kg) is 8.5 ± 1.2 days and 8.17 ± 0.75 days and 8.00 ± 0.63 days; in data set [2] (dose of 16 mg/kg, 16 mg/kg) it was 9.17 ± 0.98^+ days and 9.17 ± 0.75^+ days. For the same compound, in data set [3] (0.1 M phosphate buffer (pH 7.4, 37° C)), the half life is 17.5 h.

In turn, `CO[C@H]1C[C@@H]2CC[C@@H](C)[C@@](O)(O2)C(=O)C(=O)N2CCCC[C@H]2C(=O)O[C@H]([C@H](C)C[C@@H]2CC[C@@H](O)[C@H](OC)C2)CC(OC(C)=O)[C@H](C)/C=C(\C)[C@@H](O)[C@@H](OC)C(=O)[C@H](C)C[C@H](C)/C=C/C=C/C=C/1C` (some centres unmarked) [Example 5, 27-Hydroxyrapamycin-27-ester with acetic acid] registered an inhibition at 0.1 µM in data set [1] (Mus musculus, T-cell, at 0.1 µM) of 69%. Besides, the inhibition at 1 µM in data set [1] (Mus musculus, T-cell, at 1 µM) was determined as 94%. Further, the IC50 in data set [1] (Mus musculus, Thymocyte, thymocytes cultured 72 hours with PHA and IL-1, tritiated thymidine incorporation) was determined as 99 nM. Further, the half-life in data set [3] is 34 h.

Consider `CO[C@H]1C[C@@H]2CC[C@@H](C)[C@@](O)(O2)C(=O)C(=O)N2CCCC[C@H]2C(=O)O[C@H]([C@H](C)C[C@@H]2CC[C@@H](O)[C@H](OC)C2)CC(=O)[C@H](C)/C=C(\C)[C@@H](O)[C@@H](OC)C(=O)[C@H](C)C[C@H](C)/C=C/C=C/C=C/1C` [Rapamycin], for which the IC50 in data set [1] (Mus musculus, Thymocyte, 72 h) was 4.8 nM. Moreover, the “Skin Graft (days + SD)” value in data set [2] (dose of 4 mg/kg) is listed as 12.0 ± 1.7 days. In addition, in data set [3], the half-life is 11.8 h.
